Laboratory results from PubChem BioAssay (NCI).
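How tested: cells in 96-well plates exposed to compound for 48 hours at five concentrations. TGI denotes the concentration required for complete inhibition of growth.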

Key:
Assay in all cases: growth of human tumour cells (NCI), 48 h
[1] = system: 786-0 renal
[2] = system: A498 renal
[3] = system: A549 NSCLC
[4] = system: ACHN renal
[5] = system: BT-549 breast
[6] = system: CAKI-1 renal
[7] = system: CCRF-CEM leukemia
[8] = system: COLO 205 colon
[9] = system: DU-145 prostate
[10] = system: EKVX NSCLC
[11] = system: HCC-2998 colon
[12] = system: HCT-116 colon
[13] = system: HCT-15 colon
[14] = system: HL-60(TB) leukemia
[15] = system: HOP-62 NSCLC
[16] = system: HOP-92 NSCLC
[17] = system: HS 578T breast
[18] = system: HT29 colon
[19] = system: IGROV1 ovarian
[20] = system: K-562 leukemia
[21] = system: KM12 colon
[22] = system: LOX IMVI melanoma
[23] = system: M14 melanoma
[24] = system: MALME-3M melanoma
[25] = system: MCF7 breast
[26] = system: MDA-MB-231 breast
[27] = system: MDA-MB-435
[28] = system: MDA-N
[29] = system: MOLT-4 leukemia
[30] = system: NCI-H226 lung
[31] = system: NCI-H23 lung
[32] = system: NCI-H460 lung
[33] = system: NCI-H522 lung
[34] = system: NCI/ADR-RES ovarian
[35] = system: OVCAR-3 ovarian
[36] = system: OVCAR-4 ovarian
[37] = system: OVCAR-5 ovarian
[38] = system: OVCAR-8 ovarian
[39] = system: PC-3 prostate
[40] = system: RPMI-8226 leukemia
[41] = system: RXF 393 renal
[42] = system: SF-268 CNS
[43] = system: SF-295 CNS
[44] = system: SF-539 CNS
[45] = system: SK-MEL-2 melanoma
[46] = system: SK-MEL-28 melanoma
[47] = system: SK-MEL-5 melanoma
[48] = system: SK-OV-3 ovarian
[49] = system: SN12C renal
[50] = system: SNB-19 CNS
[51] = system: SNB-75 CNS
[52] = system: SR leukemia
[53] = system: SW-620 colon
[54] = system: T-47D breast
[55] = system: TK-10 renal
[56] = system: U251 CNS
[57] = system: UACC-257 melanoma
[58] = system: UACC-62 melanoma
[59] = system: UO-31 renal

Work on CCCCn1c2c(n(CCCC)c1=S)-c1c(n(CCCC)c(=S)n1CCCC)SSc1c(n(CCCC)c(=S)n1CCCC)-c1c(n(CCCC)c(=S)n1CCCC)SSc1c(n(CCCC)c(=S)n1CCCC)-c1c(n(CCCC)c(=S)n1CCCC)SS2 yielded a TGI [1] greater than 50 µM, a TGI [2] greater than 50 µM and a TGI [3] greater than 50 µM. It also gave a TGI [4] of 11.1 µM, a TGI [5] greater than 50 µM and a TGI [6] greater than 40.2 µM. For the same compound, the TGI [7] was greater than 14.7 µM, the TGI [8] was 14.7 µM and the TGI [9] was greater than 50 µM. For the same compound, the TGI [10] was greater than 50 µM, the TGI [11] was greater than 50 µM and the TGI [12] was greater than 27.7 µM. The TGI [13] was 30.4 µM, the TGI [14] was 4.46 µM and the TGI [15] was greater than 50 µM. For the same compound, the TGI [16] was 3.53 µM, the TGI [17] was greater than 50 µM and the TGI [18] was greater than 46.6 µM. The TGI [19] was 8.64 µM, the TGI [20] was greater than 50 µM and the TGI [21] was greater than 50 µM. The TGI [22] was 13.3 µM, the TGI [23] was greater than 50 µM and the TGI [24] was 6.19 µM. For the same compound, the TGI [25] was 48 µM, the TGI [26] was 8.67 µM and the TGI [27] was greater than 42.1 µM. It also gave a TGI [28] greater than 46 µM, a TGI [29] greater than 50 µM and a TGI [30] greater than 38.4 µM. It also gave a TGI [31] greater than 50 µM, a TGI [32] greater than 50 µM and a TGI [33] of 1.86 µM. For the same compound, the TGI [34] was greater than 50 µM, the TGI [35] was 14.6 µM and the TGI [36] was greater than 19.7 µM. For the same compound, the TGI [37] was 25.4 µM, the TGI [38] was greater than 13.6 µM and the TGI [39] was 18.9 µM. It also gave a TGI [40] greater than 50 µM, a TGI [41] greater than 50 µM and a TGI [42] greater than 30.2 µM. For the same compound, the TGI [43] was greater than 37 µM, the TGI [44] was greater than 50 µM and the TGI [45] was 29.3 µM. For the same compound, the TGI [46] was greater than 50 µM, the TGI [47] was greater than 36.6 µM and the TGI [48] was greater than 50 µM. For the same compound, the TGI [49] was greater than 50 µM, the TGI [50] was greater than 50 µM and the TGI [51] was greater than 50 µM. It also gave a TGI [52] greater than 50 µM, a TGI [53] greater than 14.8 µM and a TGI [54] of 9.51 µM. The TGI [55] was greater than 50 µM, the TGI [56] was greater than 50 µM and the TGI [57] was greater than 50 µM. For the same compound, the TGI [58] was 20.3 µM and the TGI [59] was 16.5 µM.

In the case of C/C(=N\NC(=S)NCCCNC(=S)N/N=C(\C)c1ccccn1)c1ccccn1, the TGI [1] is reported as 6.07 µM, the TGI [2] is reported as 26.2 µM and the TGI [3] is reported as greater than 49.8 µM. For the same compound, the TGI [4] was 16.6 µM, the TGI [5] was 21.9 µM and the TGI [6] was greater than 49.9 µM. The TGI [7] was 9.4 µM, the TGI [8] was greater than 34.9 µM and the TGI [9] was 33.9 µM. For the same compound, the TGI [10] was greater than 63.9 µM, the TGI [11] was greater than 59.1 µM and the TGI [12] was 24 µM. For the same compound, the TGI [13] was greater than 30.7 µM, the TGI [14] was greater than 30.2 µM and the TGI [15] was 20.7 µM. The TGI [16] was greater than 66.2 µM, the TGI [17] was greater than 100 µM and the TGI [18] was greater than 100 µM. It also gave a TGI [19] of 37.4 µM, a TGI [20] greater than 100 µM and a TGI [21] greater than 76.1 µM. It also gave a TGI [22] greater than 51.2 µM, a TGI [23] of 4.08 µM and a TGI [24] of 17.5 µM. The TGI [25] was greater than 50.6 µM, the TGI [26] was greater than 49.9 µM and the TGI [27] was greater than 43.5 µM. It also gave a TGI [28] greater than 100 µM, a TGI [29] greater than 100 µM and a TGI [30] greater than 29.6 µM. It also gave a TGI [31] greater than 54.4 µM, a TGI [32] of 10.1 µM and a TGI [33] greater than 49.4 µM. The TGI [34] was 8.19 µM, the TGI [35] was 20.7 µM and the TGI [36] was greater than 54 µM. The TGI [37] was greater than 90.3 µM, the TGI [38] was 10.9 µM and the TGI [39] was greater than 91.5 µM. The TGI [40] was greater than 100 µM, the TGI [41] was 14.7 µM and the TGI [42] was 21 µM. For the same compound, the TGI [43] was 46.1 µM, the TGI [44] was 8.72 µM and the TGI [45] was greater than 50.9 µM. It also gave a TGI [46] greater than 100 µM, a TGI [47] greater than 22 µM and a TGI [48] greater than 35.1 µM. The TGI [49] was 11.2 µM, the TGI [50] was greater than 69.7 µM and the TGI [51] was 31.7 µM. For the same compound, the TGI [52] was 6.19 µM, the TGI [53] was greater than 100 µM and the TGI [54] was greater than 24.1 µM. It also gave a TGI [55] of 24.2 µM, a TGI [56] greater than 47.1 µM and a TGI [57] of 29 µM. It also gave a TGI [58] of 14.2 µM and a TGI [59] greater than 54.1 µM.

N#Cc1cnc(N)nc1NCC1(CO)CC(CCc2ccccc2)C1 (configuration not stated) showed a TGI [1] greater than 100 µM, a TGI [2] greater than 100 µM and a TGI [3] greater than 100 µM. It also gave a TGI [4] greater than 100 µM, a TGI [5] greater than 100 µM and a TGI [6] greater than 100 µM. The TGI [7] was greater than 100 µM, the TGI [8] was greater than 100 µM and the TGI [9] was greater than 100 µM. The TGI [10] was greater than 100 µM, the TGI [11] was greater than 100 µM and the TGI [12] was greater than 100 µM. For the same compound, the TGI [13] was greater than 100 µM, the TGI [14] was greater than 100 µM and the TGI [15] was greater than 100 µM. For the same compound, the TGI [16] was greater than 100 µM, the TGI [17] was greater than 100 µM and the TGI [18] was greater than 100 µM. It also gave a TGI [19] greater than 100 µM, a TGI [20] greater than 100 µM and a TGI [21] greater than 100 µM. For the same compound, the TGI [22] was greater than 100 µM, the TGI [23] was greater than 100 µM and the TGI [24] was greater than 100 µM. It also gave a TGI [25] greater than 100 µM, a TGI [26] greater than 100 µM and a TGI [27] greater than 100 µM. For the same compound, the TGI [28] was greater than 100 µM, the TGI [29] was greater than 100 µM and the TGI [30] was greater than 100 µM. It also gave a TGI [31] greater than 100 µM, a TGI [32] greater than 100 µM and a TGI [33] greater than 100 µM. The TGI [34] was greater than 100 µM, the TGI [35] was greater than 100 µM and the TGI [36] was greater than 100 µM. For the same compound, the TGI [37] was greater than 100 µM, the TGI [38] was greater than 100 µM and the TGI [39] was greater than 100 µM. For the same compound, the TGI [40] was greater than 100 µM, the TGI [41] was greater than 100 µM and the TGI [42] was greater than 100 µM. It also gave a TGI [43] greater than 100 µM, a TGI [44] greater than 100 µM and a TGI [45] greater than 100 µM. The TGI [46] was greater than 100 µM, the TGI [47] was greater than 100 µM and the TGI [48] was greater than 100 µM. For the same compound, the TGI [49] was greater than 100 µM, the TGI [50] was greater than 100 µM and the TGI [51] was greater than 83.1 µM. The TGI [52] was greater than 100 µM, the TGI [53] was greater than 100 µM and the TGI [54] was greater than 20.5 µM. The TGI [55] was greater than 100 µM, the TGI [56] was greater than 100 µM and the TGI [57] was greater than 100 µM. The TGI [58] was greater than 100 µM and the TGI [59] was greater than 100 µM.
